# In patent US20240360151A1 (SANOFI, priority 2023, published 2024):
# Experiments:
# NLRP3 inflammasome = molecular target: T1, NLRP3 inflammasome (Homo sapiens, UniProt Q96P20); assay: IL-1β secretion assay (NLRP3 IC50) in LPS-primed, nigericin-activated THP-1 cells, HTRF; assay type: cell-based; details: monocytic THP-1 cells; LPS 10 ng/mL 3 h priming, then compound + nigericin 10 μM 2 h; relative IC50, 10 concentrations, geometric mean
# T1 construct: endogenous in cells; host or cells: THP-1 monocytic cells
# T1 sequence (Q96P20 whole entry): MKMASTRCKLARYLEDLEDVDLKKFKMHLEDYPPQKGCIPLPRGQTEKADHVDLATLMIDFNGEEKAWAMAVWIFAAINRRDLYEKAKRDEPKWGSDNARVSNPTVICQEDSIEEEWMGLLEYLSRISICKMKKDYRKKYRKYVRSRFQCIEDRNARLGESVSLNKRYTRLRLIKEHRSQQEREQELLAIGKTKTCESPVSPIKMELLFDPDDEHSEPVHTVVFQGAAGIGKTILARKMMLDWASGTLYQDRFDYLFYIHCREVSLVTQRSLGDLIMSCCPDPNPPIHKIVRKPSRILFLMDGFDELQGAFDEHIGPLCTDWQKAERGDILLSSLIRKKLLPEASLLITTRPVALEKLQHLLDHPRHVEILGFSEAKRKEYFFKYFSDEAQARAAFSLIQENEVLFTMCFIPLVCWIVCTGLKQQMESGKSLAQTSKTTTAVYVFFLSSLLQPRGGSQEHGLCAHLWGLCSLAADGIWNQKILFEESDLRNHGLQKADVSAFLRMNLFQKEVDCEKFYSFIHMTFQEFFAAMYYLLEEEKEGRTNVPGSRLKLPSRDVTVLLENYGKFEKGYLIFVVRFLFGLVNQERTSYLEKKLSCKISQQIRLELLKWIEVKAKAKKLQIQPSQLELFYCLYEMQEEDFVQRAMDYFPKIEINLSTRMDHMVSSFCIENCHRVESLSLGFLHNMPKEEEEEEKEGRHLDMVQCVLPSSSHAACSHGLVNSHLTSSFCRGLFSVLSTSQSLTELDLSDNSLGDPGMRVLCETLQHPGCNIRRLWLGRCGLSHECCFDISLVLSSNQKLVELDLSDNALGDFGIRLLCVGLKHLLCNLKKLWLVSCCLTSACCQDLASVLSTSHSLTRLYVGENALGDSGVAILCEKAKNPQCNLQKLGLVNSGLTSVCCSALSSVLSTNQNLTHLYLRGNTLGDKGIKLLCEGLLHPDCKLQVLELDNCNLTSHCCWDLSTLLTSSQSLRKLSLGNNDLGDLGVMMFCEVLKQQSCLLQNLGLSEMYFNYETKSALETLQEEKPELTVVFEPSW
# In short: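 THP-1 cells primed with LPS 10 ng/mL for 3 h at 37° C., then compound (10-point 1:3 dilution, 0.1% DMSO) added with 10 μM nigericin for 2 h. Supernatant IL-1β measured by HTRF; relative IC50 from a 4-parameter logistic fit, reported as geometric mean.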
# [1] = tested on: NF-kB pathway (TNF-α secretion by THP-1 cells); assay: TNF-α secretion assay in LPS-stimulated THP-1 cells, Lumit immunoassay; assay type: cell-based, human; details: Homo sapiens, THP-1, 3 h, monocytic THP-1 cells, LPS 10 ng/mL, relative IC50, 10 concentrations, geometric mean
# Description: Monocytic THP-1 cells were maintained in RPMI 1640 media (Gibco 21875)+10% FBS, (Gibco 10500)+1% penicillin/streptomycin (Gibco 15140-122). Cells were then plated at 40,000 cells per well in 384-well cell culture plates (Corning 3542) and maintained with RPMI1640 (Gibco 11835)+5% FBS, (Gibco 10500). Experimental compounds were prepared and added as described above. TNF-α secretion was triggered by the addition of 10 ng/mL LPS (invivoGen, tlrl-3pelps) and cells were incubated for 3 hours. TNF-α levels were monitored directly in the cells plate using an Lumit assay (Lumit TNFa-Human Immunoassay—Promega W6051) according to manufacturers' instructions.
# Data were expressed as percentage of inhibition (I %) as compared to a maximum signal control containing no small molecule (I %=0%) according to the formula: 1%=(1−((Sample−Min))/((Max−Min)))×100, where: • Sample: Signal obtained in the presence of each compound tested, • Max: Maximum signal in the absence of compound added, • Min: Minimum or background signal obtained in the absence of activation signal.
# Relative IC50 (IC50 rel) were obtained from a dose response curve with 10 concentrations. Final IC50 rels are expressed as the geometric mean.
# Relative IC50 values were estimated with Biost@t-SPEED v2.4 internal software based on SAS system using the 4-parameter logistic model according to Ratkovsky and Reedy (D. A. Ratkovsky, T. J. Reedy, Choosing near-linear parameters in the four parameters logistic model radioligands and related assays. Biometrics, 42 (1986), 575-582): Y=A+C/((1+exp(−B*(log(X)−M)))), where: • A: Lower asymptote (BOTTOM), • A+C: Upper asymptote (TOP), • M: the logarithm of the concentration estimated at the inflexion point (the logarithm of the relative IC50), • B: Slope at the inflexion point of the curve.
IC50 (NLRP3 inflammasome) [nM],IC50 [1] [nM],Structure (SMILES)
9,> 10000,"Cc1cc(C(F)(F)F)cc(O)c1-c1ccc(N2CCO[C@H]3CCNC[C@H]32)nn1 (racemic) [Example 197, 2-[6-[rac-(4aR,8aS)-2,3,4a,5,6,7,8,8a-octahydropyrido[4,3-b][1,4]oxazin-4-yl]pyridazin-3-yl]-3-methyl-5-(trifluoromethyl)phenol]"
1,> 10000,"CCN1CC[C@@H]2OCCN(c3ccc(-c4c(C)cc(C(F)(F)F)cc4O)nn3)[C@@H]2C1 (racemic) [Example 210, 2-[6-[rac-(4aR,8aS)-6-ethyl-3,4a,5,7,8,8a-hexahydro-2H-pyrido[4,3-b][1,4]oxazin-4-yl]pyridazin-3-yl]-3-methyl-5-(trifluoromethyl)phenol]"
36,> 10000,"CC(=O)N1CC[C@H]2OCCN(c3ccc(-c4c(C)cc(C(F)(F)F)cc4O)nn3)[C@H]2C1 (racemic) [Example 214, 1-[rac-(4aS,8aR)-4-[6-[2-hydroxy-6-methyl-4-(trifluoromethyl)phenyl]pyridazin-3-yl]-3,4a,5,7,8,8a-hexahydro-2H-pyrido[4,3-b][1,4]oxazin-6-yl]ethanone]"
1,> 10000,"Cc1cc(Cl)cc(O)c1-c1ccc(N2CCO[C@H]3CCN(C)C[C@H]32)nn1 (racemic) [Example 224, 5-chloro-3-methyl-2-[6-[rac-(4aR,8aS)-6-methyl-3,4a,5,7,8,8a-hexahydro-2H-pyrido[4,3-b][1,4]oxazin-4-yl]pyridazin-3-yl]phenol]"
3,> 10000,"Cc1cc(C)c(-c2ccc(N3CCO[C@H]4CCN(C)C[C@H]43)nn2)c(O)c1 (racemic) [Example 225, 2-[6-[rac-(4aR,8aS)-6-methyl-3,4a,5,7,8,8a-hexahydro-2H-pyrido[4,3-b][1,4]oxazin-4-yl]pyridazin-3-yl]-3,5-dimethyl-phenol]"
2,> 10000,"Cc1cc(C(F)(F)F)cc(O)c1-c1ccc(N2CCO[C@H]3CCN(C)C[C@H]32)nn1 (racemic) [Example 226, 2-[6-[rac-(4aR,8aS)-6-methyl-3,4a,5,7,8,8a-hexahydro-2H-pyrido[4,3-b][1,4]oxazin-4-yl]pyridazin-3-yl]-3-methyl-5-(trifluoromethyl)phenol]"
1220,,"Cc1cc(C)c(-c2ccc(N3CCC[C@H]4CCN(C)C[C@H]43)nn2)c(O)c1 [Example 518, 2-[6-[(4aS,8aS)-7-methyl-2,3,4,4a,5,6,8,8a-octahydro-1,7-naphthyridin-1-yl]pyridazin-3-yl]-3,5-dimethyl-phenol]"
7,,"Cc1cc(C)c(-c2ccc(N3CCC[C@@H]4CCN(C)C[C@@H]43)nn2)c(O)c1 [Example 519, 2-[6-[(4aR,8aR)-7-methyl-2,3,4,4a,5,6,8,8a-octahydro-1,7-naphthyridin-1-yl]pyridazin-3-yl]-3,5-dimethyl-phenol]"
55,,"Cc1cc(C)c(-c2ccc(N3CCC[C@H]4CCN(C)C[C@@H]43)nn2)c(O)c1 [Example 520, 2-[6-[(4aS,8aR)-7-methyl-2,3,4,4a,5,6,8,8a-octahydro-1,7-naphthyridin-1-yl]pyridazin-3-yl]-3,5-dimethyl-phenol]"
28,,"Cc1cc(C)c(-c2ccc(N3CCO[C@@H]4CCN(CCF)C[C@@H]43)nn2)c(O)c1 [Example 521, 2-[6-[(4aS,8aR)-6-(2-fluoroethyl)-3,4a,5,7,8,8a-hexahydro-2H-pyrido[4,3-b][1,4]oxazin-4-yl]pyridazin-3-yl]-3,5-dimethyl-phenol]"
681,,"Cc1cc(C(F)(F)F)cc(O)c1-c1ccc(N2CCC[C@@H]3CCN(C)C[C@@H]32)nn1 [Example 523, 2-[6-[(4aR,8aR)-7-methyl-2,3,4,4a,5,6,8,8a-octahydro-1,7-naphthyridin-1-yl]pyridazin-3-yl]-3-methyl-5-(trifluoromethyl)phenol]"
8,,"Cc1cc(C(F)(F)F)cc(O)c1-c1ccc(N2CCC[C@H]3CCN(C)C[C@H]32)nn1 [Example 524, 2-[6-[(4aS,8aS)-7-methyl-2,3,4,4a,5,6,8,8a-octahydro-1,7-naphthyridin-1-yl]pyridazin-3-yl]-3-methyl-5-(trifluoromethyl)phenol]"

# More lines, now with the values behind:
Structure (SMILES),IC50 (NLRP3 inflammasome) [nM],IC50 [1] [nM]
"Cc1cc(C)c(-c2ccc(N3CCO[C@H]4CN(C5CCC5)CC[C@H]43)nn2)c(O)c1 (racemic) [Example 4, 3,5-dimethyl-2-[6-[rac-(4aS,8aR)-6-cyclobutyl-3,4a,5,7,8,8a-hexahydro-2H-pyrido[3,4-b][1,4]oxazin-1-yl]pyridazin-3-yl]phenol]",251,> 10000
"Cc1cc(C)c(-c2ccc(N3CCO[C@@H]4COCC[C@H]43)nn2)c(O)c1 (racemic) [Example 154, 3,5-dimethyl-2-[6-[rac-(4aR,8aS)-3,4a,5,7,8,8a-hexahydro-2H-pyrano[3,4-b][1,4]oxazin-1-yl]pyridazin-3-yl]phenol]",344,> 10000
"Cc1cc(C)c(-c2ccc(N3CCO[C@H]4CCNC[C@H]43)nn2)c(O)c1 (racemic) [Example 195, 3,5-dimethyl-2-[6-[rac-(4aR,8aS)-2,3,4a,5,6,7,8,8a-octahydropyrido[4,3-b][1,4]oxazin-4-yl]pyridazin-3-yl]phenol]",14,> 10000
"CCN1CC[C@@H]2OCCN(c3ccc(-c4c(C)cc(C)cc4O)nn3)[C@@H]2C1 (racemic) [Example 209, 2-[6-[rac-(4aR,8aS)-6-ethyl-3,4a,5,7,8,8a-hexahydro-2H-pyrido[4,3-b][1,4]oxazin-4-yl]pyridazin-3-yl]-3,5-dimethyl-phenol]",2,> 10000
"CC(=O)N1CC[C@@H]2OCCN(c3ccc(-c4c(C)cc(C)cc4O)nn3)[C@@H]2C1 (racemic) [Example 213, 1-[rac-(4aR,8aS)-4-[6-(2-hydroxy-4,6-dimethyl-phenyl)pyridazin-3-yl]-3,4a,5,7,8,8a-hexahydro-2H-pyrido[4,3-b][1,4]oxazin-6-yl]ethanone]",115,> 10000
"Cc1cc(Cl)cc(O)c1-c1ccc(N2CCO[C@H]3CCNC[C@H]32)nn1 (racemic) [Example 221, 2-[6-[rac-(4aR,8aS)-2,3,4a,5,6,7,8,8a-octahydropyrido[4,3-b][1,4]oxazin-4-yl]pyridazin-3-yl]-5-chloro-3-methyl-phenol]",18,> 10000
"CC(=O)N1CC[C@@H]2OCCN(c3ccc(-c4c(C)cc(Cl)cc4O)nn3)[C@@H]2C1 (racemic) [Example 222, 1-[rac-(4aR,8aS)-4-[6-(4-chloro-2-hydroxy-6-methyl-phenyl)pyridazin-3-yl]-3,4a,5,7,8,8a-hexahydro-2H-pyrido[4,3-b][1,4]oxazin-6-yl]ethanone]",42,> 10000
"CCN1CC[C@@H]2OCCN(c3ccc(-c4c(C)cc(Cl)cc4O)nn3)[C@@H]2C1 (racemic) [Example 223, 5-chloro-3-methyl-2-[6-[rac-(4aR,8aS)-6-ethyl-3,4a,5,7,8,8a-hexahydro-2H-pyrido[4,3-b][1,4]oxazin-4-yl]pyridazin-3-yl]phenol]",1,> 10000
"Cc1cc(Cl)cc(O)c1-c1ccc(N2CCO[C@@H]3CCN(CCF)C[C@@H]32)nn1 [Example 522, 2-[6-[(4aS,8aR)-6-(2-fluoroethyl)-3,4a,5,7,8,8a-hexahydro-2H-pyrido[4,3-b][1,4]oxazin-4-yl]pyridazin-3-yl]-5-chloro-3-methyl-phenol]",21,
"Oc1cc(Cl)ccc1-c1ccc(N2CCO[C@@H]3CCN(CCF)C[C@@H]32)nn1 [Example 525, 2-[6-[(4aS,8aR)-6-(2-fluoroethyl)-3,4a,5,7,8,8a-hexahydro-2H-pyrido[4,3-b][1,4]oxazin-4-yl]pyridazin-3-yl]-5-chloro-phenol]",631,
"CCc1cc(Cl)cc(O)c1-c1ccc(N2CCO[C@@H]3CCN(CC)C[C@@H]32)nn1 [Example 526, 2-[6-[(4aS,8aR)-6-ethyl-3,4a,5,7,8,8a-hexahydro-2H-pyrido[4,3-b][1,4]oxazin-4-yl]pyridazin-3-yl]-5-chloro-3-ethyl-phenol]",1,
"Cc1cc(C)c(-c2ccc(N3CCO[C@@H]4CCN(CCCF)C[C@@H]43)nn2)c(O)c1 [Example 527, 2-[6-[(4aS,8aR)-6-(3-fluoropropyl)-3,4a,5,7,8,8a-hexahydro-2H-pyrido[4,3-b][1,4]oxazin-4-yl]pyridazin-3-yl]-3,5-dimethyl-phenol]",20,
